This series in a line: gradient 5% acetonitrile 3 min, to 50% in 2 min, to 85% in 15 min, held 3 min, 100 µL/min. The following applies: column: Zorbax Extend-C18 2.1 x 50 mm; eluents: water / acetonitrile, 0.1% formic acid. Summed up:
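Retention time was recorded from adduct peaks, which were picked computationally and each inspected manually. Pure standards ran in mixtures of ~100 molecules on HPLC coupled to a quadrupole time-of-flight mass spectrometer, in positive and negative ionization mode, through a Zorbax Extend-C18 column (2.1 × 50 mm, 1.8 μm) at 100 μL/min. Eluents were water and acetonitrile, each with 0.1% formic acid.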
`O=C1CCc2cc(NC(=O)c3ccc(-c4ccccc4)cc3)ccc2N1` returned an RP-LC retention time of 760 s.

Regarding `COC(=O)c1ccc(NC(=O)Cn2nc3nc(N4CCCCC4C)ccn3c2=O)cc1` (stereo not drawn), the RP-LC retention time stood at 778 s.

In turn, `CCn1cnnc1CC1CCN(S(=O)(=O)Cc2ccccc2F)C1` (stereo not drawn) yielded an RP-LC retention time of 658 s.

Regarding `CCCCN1CCN(C(=O)c2cnc(-c3ccccc3)nc2-c2ccncc2)CC1`, the RP-LC retention time turned out to be 638 s.

`COc1ccc(-c2nc3ccc(Cl)cn3c2Nc2ccc3c(c2)OCO3)cc1` registered an RP-LC retention time of 748 s.

Molecule `O=C1NC(C(=O)Nc2ccc3c(c2)OCCO3)Cn2cccc21` (stereo not drawn) gave an RP-LC retention time of 643 s.

`O=C(Cn1ccnc1-c1ccnc(N2CCCC2)c1)NCc1ccccc1Cl` registered an RP-LC retention time of 606 s.

Turning to `Cc1ccc(C)c(-n2ccn(Cc3nc(-c4ccc(F)c(Cl)c4)no3)c(=O)c2=O)c1`, the RP-LC retention time turned out to be 1010 s.

Consider `Cc1nc(-c2ccc(N3CCN(C(=O)c4ccc(Br)o4)CC3)cc2)no1`, for which the RP-LC retention time came to 912 s.

The molecule `CCOc1ccc2ncc(C(=O)c3ccc(OC)cc3)c(N3CCN(CC)CC3)c2c1` gave an RP-LC retention time of 600 s.

For the molecule `CCc1ccc(NC(=O)N2CCC3(CC2)NC(=O)c2ccccc2N3C)cc1`, the RP-LC retention time was found to be 808 s.

`CCOC(=O)c1c(S(=O)(=O)N2CCC(C(=O)NCc3cccc(OC)c3)CC2)c(C)n(C)c1C` yielded an RP-LC retention time of 772 s.

For `COC(=O)C1=CN(C2CC2)c2cc(N3CCCC(C)C3)c(F)cc2S1(=O)=O` (stereo not drawn), the RP-LC retention time amounted to 1010 s.

Consider `O=c1c2sccc2n(Cc2nc(-c3ccc(F)cc3)no2)c(=O)n1-c1cccc(F)c1`, for which the RP-LC retention time was 970 s.

In the case of `CC(=O)Nc1cccc(-c2nc(-c3ccc4ncn(C(C)C)c4c3)no2)c1`, the RP-LC retention time was 660 s.

Turning to `Cc1cc(N2CCCCC2)nc(N2CCN(S(=O)(=O)c3ccc(-c4ccccc4)cc3)CC2)n1`, the RP-LC retention time came to 935 s.

As to `CC1CCN(C(=O)c2cn(-c3ccc(S(=O)(=O)N4CCCC(C)C4)cn3)cn2)CC1` (stereo not drawn), the RP-LC retention time was 954 s.

`O=C(NCC1CCOCC1)c1cnc(Nc2ccc(Cl)cc2Cl)nc1C(F)(F)F` returned an RP-LC retention time of 997 s.

The molecule `Cc1cc(C)c(C#N)c(SCC(=O)N2CCOCC2)n1` returned an RP-LC retention time of 721 s.

Consider `CCc1ccc(N2C(=O)C3N=NN(c4cccc(OC)c4)C3C2=O)cc1` (stereo not drawn), for which the RP-LC retention time was 1020 s.

Turning to `Cc1c(CCC(=O)NCc2cccnc2)c(=O)n2nc(-c3ccc(Cl)cc3)nc2n1C`, the RP-LC retention time was found to be 632 s.

Regarding `CC(C)n1cnc2c(NCCc3ccc(O)cc3)nc(-c3csc4ccccc34)nc21`, the RP-LC retention time was found to be 1160 s.

Molecule `Cc1ccccc1CNC(=O)C1(c2ccc(NS(C)(=O)=O)cc2)CCCCC1` came in with an RP-LC retention time of 917 s.

The molecule `COc1cccc(CN2CN(c3ccc(C)cc3)c3ncccc3S2(=O)=O)c1` showed an RP-LC retention time of 1110 s.

For `CN1C(=O)[C@H]2CN(Cc3cn[nH]c3-c3cccc(Br)c3)C[C@H]2C1=O`, the RP-LC retention time was 612 s.

The molecule `Cc1nnc2c(=O)n(CC(=O)NCCN3CCc4ccccc4C3)c3cccnc3n12` displayed an RP-LC retention time of 738 s.

`O=C(CCn1nnc2cc(-c3noc(Cc4ccc(F)cc4)n3)ccc21)N1CCCC1`: the RP-LC retention time stood at 860 s.

In turn, `Cc1ccccc1NC(=O)C1CCN(C(=O)C2Sc3ccccc3NC2=O)CC1` (stereo not drawn) returned an RP-LC retention time of 741 s.

The molecule `Cc1ccc(NC(=O)CN2C(=O)CCCc3cc(S(=O)(=O)N4CCCC4)ccc32)cc1C` came in with an RP-LC retention time of 824 s.

On to `CC(C)CCNC(=O)C1(C)Cn2nc(C(=O)NCc3ccc(F)cc3)cc2C(=O)N1C` (stereo not drawn), for which the RP-LC retention time is 727 s.

Take `Cc1nn(-c2nc(CC(=O)N3CCOCC3)cs2)c(C)c1Cl`: the RP-LC retention time is 842 s.

Molecule `CCn1c(=O)cc(OCC(=O)NCCN(C)Cc2ccccc2)c2ccccc21` had an RP-LC retention time of 617 s.

As to `Cc1cc(C)c(NC(=O)C2CCN(S(C)(=O)=O)c3ccccc3O2)c(C)c1` (stereo not drawn), the RP-LC retention time was determined as 900 s.

On to `CN(C)C(=O)c1cc2c(s1)CCC(C(=O)NCc1ccncc1)C2` (stereo not drawn), for which the RP-LC retention time came out at 556 s.

`O=C(Nc1ccc2c(c1)OCCO2)N1CCN(Cc2nc3cccnc3n2-c2ccccc2)CC1` had an RP-LC retention time of 635 s.

For `C=Cc1ccc(Cn2cc(S(=O)(=O)N3CCCCC3)ccc2=O)cc1`, the RP-LC retention time turned out to be 968 s.

On to `Cn1c(=O)n(CC(=O)N2CCCCC2)c(=O)c2cnc(-c3ccccc3)nc21`, for which the RP-LC retention time came to 918 s.

`CCOc1nc2ccccc2nc1N1CCCC(C(=O)Nc2ccc(OC)cc2OC)C1` (stereo not drawn) showed an RP-LC retention time of 1180 s.

`O=C(Nc1cnc(N2CCN(CCOc3ccc(Cl)cc3)CC2)c(C(=O)O)c1)c1cccs1` yielded an RP-LC retention time of 683 s.

`CC1(C(=O)NCc2cccc(F)c2)CCCN(S(=O)(=O)c2ccccc2)C1` (stereo not drawn): the RP-LC retention time was 902 s.

Consider `CCN1C(=O)c2cc(NC(=O)c3ccc(Br)o3)ccc2Oc2ccccc21`, for which the RP-LC retention time came out at 908 s.

The molecule `O=C(NC1CCCCC1)c1cccc(Nc2c(-c3ccccc3)nc3cnccn23)c1` gave an RP-LC retention time of 838 s.

Molecule `COc1ccc(C)cc1NC(=O)Cn1cnc2nc(N3CCC(C(=O)NC4CC4)CC3)sc2c1=O` registered an RP-LC retention time of 723 s.

The molecule `CC(=O)OCC1OC(N2CCC(=O)NC2=O)C(OC(C)=O)C1OC(C)=O` (stereo not drawn) came in with an RP-LC retention time of 1040 s.

Molecule `COc1ccc(CNC(=O)C(C)n2ccc3cc(S(=O)(=O)N4CCCCC4)ccc32)c(OC)c1` (stereo not drawn) had an RP-LC retention time of 959 s.

Molecule `CCc1noc(NC(C)=O)c1-c1ccc(C)c(S(=O)(=O)NC(C)CC)c1` (stereo not drawn) registered an RP-LC retention time of 787 s.

The molecule `O=C(NCC1CC(=O)N(c2ccc3c(c2)OCO3)C1)C1CC1` (stereo not drawn) came in with an RP-LC retention time of 606 s.

`Cc1ccccc1NC(=O)N(C)CC1CCOCC1` came in with an RP-LC retention time of 726 s.

In turn, `CCS(=O)(=O)c1ccc2c(c1)N(Cc1nc(-c3ccc(OC(F)(F)F)cc3)no1)C(=O)CO2` yielded an RP-LC retention time of 1030 s.

For `CCC(C)C(NC(=O)c1cc(F)cc(F)c1)C(=O)Nc1nc2ccccc2[nH]1` (stereo not drawn), the RP-LC retention time stood at 787 s.

In turn, `CCNC(=O)c1cc(C2CC2)[nH]n1` gave an RP-LC retention time of 611 s.

Turning to `Cc1ccc(C2Cn3nnc(C(=O)N4CCN(C(=O)c5ccoc5)CC4)c3CO2)cc1` (stereo not drawn), the RP-LC retention time stood at 815 s.

On to `O=C([C@@H]1C[C@H](Oc2cccnc2)CN1C(=O)C1CC=CC1)N1CCCC1`, for which the RP-LC retention time was found to be 571 s.

The molecule `COCC(=O)NC1CCC12CCN(C(=O)CCC1CCCC1)CC2` (stereo not drawn) displayed an RP-LC retention time of 735 s.

In turn, `COCCC(=O)Nc1c(-c2ccccc2)nc2sc(N3CCCCC3)nn12` gave an RP-LC retention time of 751 s.

The molecule `O=C(CCCCCCNC(=O)c1cnc(N(c2ccccc2)c2ccccc2)nc1)NO` showed an RP-LC retention time of 771 s.

For `O=C(NCC1CCCO1)C1CCN(c2cnn(Cc3ccccc3)c(=O)c2)CC1` (stereo not drawn), the RP-LC retention time came to 667 s.

`COc1ccccc1CNS(=O)(=O)c1ccc2c(c1)C(=O)N(C)c1ncccc1O2` came in with an RP-LC retention time of 907 s.

`Cc1ccc(NC(=O)N2CCc3nc[nH]c3C2)cc1F` displayed an RP-LC retention time of 606 s.

In turn, `Cc1ccc(C(=O)N2CCN(c3ccc(-c4nc(C)c(C)s4)cn3)CC2)s1` gave an RP-LC retention time of 891 s.

On to `CSc1ccc(-c2noc(Cn3ncn4nc(-c5ccc(C)cc5C)cc4c3=O)n2)cc1`, for which the RP-LC retention time is 1270 s.

Take `COCCN1C(=O)c2ccccc2C(C(=O)NCc2ccc(F)cc2)C12CCCCC2` (stereo not drawn): the RP-LC retention time is 877 s.

Consider `O=C(NC1CCCCC1)c1ccc2ccnc(N3CCN(c4ccccc4F)CC3)c2c1`, for which the RP-LC retention time was 908 s.

In turn, `Cc1nc(N2CCN(C(=O)Nc3cccc(C(F)(F)F)c3)CC2)cc(-n2cccn2)n1` displayed an RP-LC retention time of 947 s.

`O=C(c1nnc(-c2ccc(S(=O)(=O)N3CCOCC3)cc2)o1)N1CCCCCC1` returned an RP-LC retention time of 862 s.

The molecule `O=C(NC1CCCCC1)N1CCCC(Cn2cnc3cccnc32)C1` (stereo not drawn) came in with an RP-LC retention time of 663 s.

`O=C(CN1C(=O)CSCC1=O)Nc1ccc2c(c1)OCO2` displayed an RP-LC retention time of 638 s.

With `CCOc1cc(C2NC(=O)c3[nH]nc(-c4cccc(OC)c4)c32)ccc1O` (stereo not drawn), the RP-LC retention time amounted to 669 s.

Turning to `Cc1nc2c(sc3nc(-c4ccccc4)ccc32)c(=O)n1CC(=O)NCc1cccs1`, the RP-LC retention time stood at 750 s.

Turning to `CCOCCCNC(=O)c1nc(Nc2ccc(F)cc2)c2ccccc2n1`, the RP-LC retention time was 746 s.

As for `CCc1ccc(C(=O)c2cnc3ccc(OC)cc3c2N2CCN(C)CC2)cc1`, the RP-LC retention time is 614 s.

The molecule `C[C@H]1CN(C(=O)c2nn(C)c3ccccc23)C[C@@H]1c1nc(-c2ccncc2)no1` had an RP-LC retention time of 864 s.

`COc1cc(NC(=O)Cn2nc3cc(-c4ccccc4)nc(C)n3c2=O)cc(OC)c1` registered an RP-LC retention time of 736 s.

Molecule `c1ccc2c(N3CCNCC3)cccc2c1` gave an RP-LC retention time of 690 s.

Molecule `CN(CC(=O)N1CCN(C2CCCC2)CC1)S(=O)(=O)c1ccc2c(c1)CCCC(=O)N2` came in with an RP-LC retention time of 588 s.

Molecule `CC1(C(=O)NCc2ccc3c(c2)OCO3)CCCCC(=O)N1` (stereo not drawn) displayed an RP-LC retention time of 642 s.

`CCCN(CCC)CCNC(=O)C1CCCN(c2ncnc3c2nc2n3CCCCC2)C1` (stereo not drawn) had an RP-LC retention time of 599 s.

With `CCOC(=O)c1noc2ncnc(NCCc3ccc(C)cc3)c12`, the RP-LC retention time is 1060 s.

These data come from the METLIN SMRT retention time set (Domingo-Almenara et al. 2019).
